Laboratory results reported in patent US9206191B2, “Indazoles for the treatment and prophylaxis of respiratory syncytial virus infection” (Hoffmann-La Roche Inc., priority 2012, dated 2015).

Assays:
RSV Long strain = assay: Viral Cytopathic Effect (CPE) Assay; type: cell-based; conditions: human respiratory syncytial virus, 144 h, cell viability after 6 days, Cell Counting kit-8
[1] = single dose PK in male ICR mouse (IV and PO); type: in vivo; conditions: male ICR mice; for AUC(0-t) / half-life: mouse, plasma
Description: The single dose PK in male ICR mouse was performed to assess their pharmacokinetic properties. Two groups of animals were dosed via either bolus intravenous (IV) or oral gavage (PO) of the respective compound. The animals for oral administration were fasted overnight prior to dosing and food was resumed 4 hours postdose. Blood samples (approximately 400 μL) were collected via cardiac puncture after euthanasia by carbon dioxide inhalation at 2 min, 5 min, 15 min, 30 min, 1 h, 2 h, 4 h, 6 h, 8 h, and 24 h postdose for IV group, and at 5 min, 15 min, 30 min, 1 h, 2 h, 4 h, 6 h, 8 h, and 24 h postdose for PO group. Blood samples were placed into tubes containing sodium heparin and centrifuged at 8000 rpm for 6 minutes at 4° C. to separate plasma from the samples. Following centrifugation, the resulting plasma was transferred to clean tubes for bioanalysis on LC/MS/MS. The pharmacokinetic parameters were calculated using non-compartmental module of WinNonlin® Professional 5.2.

SMILES	EC50 (RSV Long strain) [nM]	further results
CS(=O)(=O)c1nn(Cc2nc3cc(Cl)ccc3n2CCC(F)(F)F)c2cnccc12 [Example 2-21, 1-{[5-Chloro-1-(3,3,3-trifluoropropyl)-1H-benzimidazol-2-yl]methyl}-3-(methylsulfonyl)-1H-pyrazolo[3,4-c]pyridine]	19.1	CLz ([1]; IV (1.65 mg/Kg)): 10.6 mL/min/kg; F ([1]; PO (8.27 mg/kg)): 37.1%; AUC(0-t) ([1]; IV (1.65 mg/Kg)): 2590 ng·h/mL; half-life ([1]; IV (1.65 mg/Kg)): 169 min; AUC(0-t) ([1]; PO (8.27 mg/kg)): 4800 ng·h/mL; half-life ([1]; PO (8.27 mg/kg)): 190 min
CS(=O)(=O)c1nn(Cc2nc3cc(Cl)ccc3n2CC2COC2)c2cnccc12 [Example 2-22, 1-{[5-Chloro-1-(oxetan-3-ylmethyl)-1H-benzimidazol-2-yl]methyl}-3-(methylsulfonyl)-1H-pyrazolo[3,4-c]pyridine]	6	CLz ([1]; IV (1 mg/Kg)): 16.9 mL/min/kg; F ([1]; PO (12.2 mg/kg)): 23.8%; AUC(0-t) ([1]; IV (1 mg/Kg)): 976 ng·h/mL; half-life ([1]; IV (1 mg/Kg)): 93 min; AUC(0-t) ([1]; PO (12.2 mg/kg)): 2430 ng·h/mL; half-life ([1]; PO (12.2 mg/kg)): 147 min
CS(=O)(=O)c1nn(Cc2nc3cc(Cl)ccc3n2-c2ccc(F)nc2)c2cnccc12 [Example 3-2, 1-{[5-Chloro-1-(6-fluoropyridin-3-yl)-1H-benzimidazol-2-yl]methyl}-3-(methylsulfonyl)-1H-pyrazolo[3,4-c]pyridine]	18.7	–
CS(=O)(=O)c1nn(Cc2nc3cc(Cl)ccc3n2-c2ccc(F)nc2)c2c[n+]([O-])ccc12 [Example 3-3, 1-{[5-Chloro-1-(6-fluoropyridin-3-yl)-1H-benzimidazol-2-yl]methyl}-3-(methylsulfonyl)-1H-pyrazolo[3,4-c]pyridine 6-oxide]	1540	–
COc1ccc(-n2c(Cn3nc(S(C)(=O)=O)c4ccccc43)nc3cc(Cl)ccc32)cn1 [Example 3-4, 1-{[5-Chloro-1-(6-methoxypyridin-3-yl)-1H-benzimidazol-2-yl]methyl}-3-(methylsulfonyl)-1H-indazole]	33.5	–
CS(=O)(=O)c1nn(Cc2nc3cc(Cl)ccc3n2-c2ccc(Cl)nc2)c2ccccc12 [Example 3-5, 1-{[5-Chloro-1-(6-chloropyridin-3-yl)-1H-benzimidazol-2-yl]methyl}-3-(methylsulfonyl)-1H-indazole]	18.1	–
CS(=O)(=O)c1nn(Cc2nc3cc(Cl)ccc3n2CCCC(F)(F)F)c2ccccc12 [Example 4-1, 1-{[5-Chloro-1-(4,4,4-trifluorobutyl)-1H-benzimidazol-2-yl]methyl}-3-(methylsulfonyl)-1H-indazole]	14.6	–
CS(=O)(=O)c1nn(Cc2nc3cc(Cl)ccc3n2CCCC(F)(F)F)c2c[n+]([O-])ccc12 [Example 4-2, 1-{[5-Chloro-1-(4,4,4-trifluorobutyl)-1H-benzimidazol-2-yl]methyl}-3-(methylsulfonyl)-1H-pyrazolo[3,4-c]pyridine 6-oxide]	15.9	–
CS(=O)(=O)c1nn(Cc2nc3cc(Cl)cc(F)c3n2CCC(F)(F)F)c2cnccc12 [Example 5-1, 1-{[5-Chloro-7-fluoro-1-(3,3,3-trifluoropropyl)-1H-benzimidazol-2-yl]methyl}-3-(methylsulfonyl)-1H-pyrazolo[3,4-c]pyridine]	17	–
CC(=O)N1CC[C@@H](n2c(Cn3nc(S(C)(=O)=O)c4ccncc43)nc3cc(Cl)ccc32)C1 [Example 6-1, 1-[(3R)-3-(5-Chloro-2-{[3-(methylsulfonyl)-1H-pyrazolo[3,4-c]pyridin-1-yl]methyl}-1H-benzimidazol-1-yl)pyrrolidin-1-yl]ethanone]	7	–
CC(=O)N1CCC(n2c(Cn3nc(S(C)(=O)=O)c4ccccc43)nc3cc(Cl)ccc32)C1 (stereo not shown) [Example 6-2, 1-[3-(5-Chloro-2-{[3-(methylsulfonyl)-1H-indazol-1-yl]methyl}-1H-benzimidazol-1-yl)pyrrolidin-1-yl]ethanone]	8.75	–
CC(C)(O)C(=O)N1CC[C@@H](n2c(Cn3nc(S(C)(=O)=O)c4ccncc43)nc3cc(Cl)ccc32)C1 [Example 6-5, 1-[(3R)-3-(5-Chloro-2-{[3-(methylsulfonyl)-1H-pyrazolo[3,4-c]pyridin-1-yl]methyl}-1H-benzimidazol-1-yl)pyrrolidin-1-yl]-2-hydroxy-2-methylpropan-1-one]	13	–
CS(=O)(=O)c1nn(Cc2nc3cc(Cl)ccc3n2C2CNC(=O)C2)c2cnccc12 (stereo not shown) [Example 7, 4-(5-Chloro-2-{[3-(methylsulfonyl)-1H-pyrazolo[3,4-c]pyridin-1-yl]methyl}-1H-benzimidazol-1-yl)pyrrolidin-2-one]	8.43	–
CS(=O)(=O)c1nn(Cc2nc3cc(Cl)ccc3n2C2CNC3(COC3)C2)c2cnccc12 (stereo not shown) [Example 8, 1-{[5-Chloro-1-(2-oxa-5-azaspiro[3.4]oct-7-yl)-1H-benzimidazol-2-yl]methyl}-3-(methanesulfonyl)-1H-pyrazolo[3,4-c]pyridine]	19.4	–
CS(=O)(=O)CCCn1c(Cn2nc(S(C)(=O)=O)c3ccncc32)cc2cc(Cl)ccc21 [Example 9-2, 1-({5-Chloro-1-[3-(methylsulfonyl)propyl]-1H-indol-2-yl}methyl)-3-(methylsulfonyl)-1H-pyrazolo[3,4-c]pyridine]	8.12	–
CS(=O)(=O)CCn1c(Cn2nc(S(C)(=O)=O)c3ccncc32)cc2cc(Cl)cc(F)c21 [Example 9-3, 1-({5-Chloro-7-fluoro-1-[2-(methylsulfonyl)ethyl]-1H-indol-2-yl}methyl)-3-(methylsulfonyl)-1H-pyrazolo[3,4-c]pyridine]	7.21	–
C[C@H](c1nc2cc(Cl)ccc2n1CCC(F)(F)F)n1nc(S(C)(=O)=O)c2ccncc21 [Example 15-1, 1-{(1R)-1-[5-chloro-1-(3,3,3-trifluoropropyl)-1H-benzimidazol-2-yl]ethyl}-3-(methylsulfonyl)-1H-pyrazolo[3,4-c]pyridine]	227	–
C[C@@H](c1nc2cc(Cl)ccc2n1CCC(F)(F)F)n1nc(S(C)(=O)=O)c2ccncc21 [Example 15-2, 1-{(1S)-1-[5-Chloro-1-(3,3,3-trifluoropropyl)-1H-benzimidazol-2-yl]ethyl}-3-(methylsulfonyl)-1H-pyrazolo[3,4-c]pyridine]	68	–

The remaining compounds from weak to strong by EC50 (RSV Long strain), led by results:

EC50 (RSV Long strain) [nM]	SMILES	further results
7	CS(=O)(=O)c1nn(Cc2nc3cc(Cl)cc(F)c3n2CCCC(F)(F)F)c2cnccc12 [Example 5-2, 1-{[5-Chloro-7-fluoro-1-(4,4,4-trifluorobutyl)-1H-benzimidazol-2-yl]methyl}-3-(methylsulfonyl)-1H-pyrazolo[3,4-c]pyridine]	–
6.07	CCC(=O)N1CC[C@@H](n2c(Cn3nc(S(C)(=O)=O)c4ccccc43)nc3cc(Cl)ccc32)C1 [Example 6-3, 1-[(3R)-3-(5-Chloro-2-{[3-(methylsulfonyl)-1H-indazol-1-yl]methyl}-1H-benzimidazol-1-yl)pyrrolidin-1-yl]propan-1-one]	–
4	CC(C)C(=O)N1CC[C@@H](n2c(Cn3nc(S(C)(=O)=O)c4ccncc43)nc3cc(Cl)ccc32)C1 [Example 6-4, 1-[(3R)-3-(5-Chloro-2-{[3-(methylsulfonyl)-1H-pyrazolo[3,4-c]pyridin-1-yl]methyl}-1H-benzimidazol-1-yl)pyrrolidin-1-yl]-2-methylpropan-1-one]	–
3.71	CS(=O)(=O)CCn1c(Cn2nc(S(C)(=O)=O)c3ccncc32)cc2cc(Cl)ccc21 [Example 9-1, 1-({5-Chloro-1-[2-(methylsulfonyl)ethyl]-1H-indol-2-yl}methyl)-3-(methylsulfonyl)-1H-pyrazolo[3,4-c]pyridine]	–
3.68	CS(=O)(=O)c1nn(Cc2nc3cc(Cl)ccc3n2[C@@H]2CCN(CCO)C2)c2cnccc12 [Example 6-7, 2-[(3R)-3-(5-Chloro-2-{[3-(methylsulfonyl)-1H-pyrazolo[3,4-c]pyridin-1-yl]methyl}-1H-benzimidazol-1-yl)pyrrolidin-1-yl]ethanol]	–
3	CS(=O)(=O)c1nn(Cc2nc3cc(Cl)ccc3n2[C@@H]2CCN(S(C)(=O)=O)C2)c2cnccc12 [Example 6-6, 1-({5-Chloro-1-[(3R)-1-(methylsulfonyl)pyrrolidin-3-yl]-1H-benzimidazol-2-yl}methyl)-3-(methylsulfonyl)-1H-pyrazolo[3,4-c]pyridine]	–
3	CS(=O)(=O)c1nn(Cc2nc3cc(Cl)ccc3n2[C@H]2C[C@H](CO)C2)c2cnccc12 [Example 11, [trans-3-(5-chloro-2-{[3-(methylsulfonyl)-1H-pyrazolo[3,4-c]pyridin-1-yl]methyl}-1H-benzimidazol-1-yl)cyclobutyl]methanol]	–
3	[2H]C([2H])(O)CCn1c(Cn2nc(S(C)(=O)=O)c3ccncc32)nc2cc(Cl)ccc21 [Example 13, 3-(5-chloro-2-{[3-(methylsulfonyl)-1H-pyrazolo[3,4-c]pyridin-1-yl]methyl}-1H-benzimidazol-1-yl)(1,1-^2H2)propan-1-ol]	–
2.8	CC(O)(CCn1c(Cn2nc(S(C)(=O)=O)c3ccncc32)nc2cc(Cl)ccc21)C(F)(F)F (stereo not shown) [Example 14, 4-(5-chloro-2-{[3-(methylsulfonyl)-1H-pyrazolo[3,4-c]pyridin-1-yl]methyl}-1H-benzimidazol-1-yl)-1,1,1-trifluoro-2-methylbutan-2-ol]	–
2	CS(=O)(=O)c1nn(Cc2nc3cc(Cl)cc(F)c3n2[C@@H]2CCS(=O)(=O)C2)c2cnccc12 [Example 12, 1-({5-chloro-1-[(3R)-1,1-dioxidotetrahydrothiophen-3-yl]-7-fluoro-1H-benzimidazol-2-yl}methyl)-3-(methylsulfonyl)-1H-pyrazolo[3,4-c]pyridine]	–
